Assay results from ChEMBL document CHEMBL5543142, “Discovery of YFJ-36: Design, Synthesis, and Antibacterial Activities of Catechol-Conjugated β-Lactams against Gram-Negative Bacteria” (J Med Chem, 2024).
pIC50: −log10 of the molar value.

Tests used:
[1] = Half life in ICR mouse at 20 mg/kg,iv administration measured upto 4 hrs by LC-MS/MS analysis; type: ADME, organism-based; conditions: in vivo
[2] = Volume of distribution at steady state in ICR mouse at 20 mg/kg,iv administration measured upto 4 hrs by LC-MS/MS analysis; type: ADME, organism-based; conditions: in vivo, read-out: Vdss
[3] = MRT in ICR mouse at 20 mg/kg,iv administration measured upto 4 hrs by LC-MS/MS analysis; type: ADME, organism-based; conditions: in vivo
[4] = AUC (0 to infinity) in ICR mouse at 20 mg/kg,iv administration measured upto 4 hrs by LC-MS/MS analysis; type: ADME, organism-based; conditions: in vivo
[5] = Clearance in ICR mouse at 20 mg/kg,iv administration measured upto 4 hrs by LC-MS/MS analysis; type: ADME, organism-based; conditions: in vivo
Klebsiella pneumoniae [6] = assay: Antibacterial activity against KPC-2 producing multidrug-resistant Klebsiella pneumoniae clinical isolate 15-1 assessed as inhibition of bacterial growth incubated for 18 to 20 hrs by two fold serial dilution assay; type: functional; conditions: time 18-20 hrs
Klebsiella pneumoniae [7] = assay: Antibacterial activity against KPC-2 producing multidrug-resistant Klebsiella pneumoniae clinical isolate 15-3 assessed as inhibition of bacterial growth incubated for 18 to 20 hrs by two fold serial dilution assay; type: functional; conditions: time 18-20 hrs
Pseudomonas aeruginosa [8] = assay: Antibacterial activity against IMP-4 producing multidrug-resistant Pseudomonas aeruginosa clinical isolate 17-1 assessed as inhibition of bacterial growth incubated for 18 to 20 hrs by two fold serial dilution assay; type: functional; conditions: time 18-20 hrs
Klebsiella pneumoniae [9] = assay: Antibacterial activity against Klebsiella pneumoniae ATCC BAA-1898 assessed as inhibition of bacterial growth incubated for 18 to 20 hrs in presence of iron-depleted CAMHB medium by two fold serial dilution assay; type: functional; conditions: time 18-20 hrs
Escherichia coli [10] = assay: Antibacterial activity against Escherichia coli NCTC-13353 assessed as inhibition of bacterial growth incubated for 18 to 20 hrs in presence of CAMHB medium by two fold serial dilution assay; type: functional; conditions: time 18-20 hrs
hERG (KCNH2) = hERG (KCNH2) (Homo sapiens, UniProt Q12809); assay: Inhibition of hERG at 40 uM by whole cell Qpatch assay relative to control; type: toxicity
Klebsiella pneumoniae [11] = assay: Antibacterial activity against Klebsiella pneumoniae ATCC BAA-1898 assessed as inhibition of bacterial growth incubated for 18 to 20 hrs in presence of CAMHB medium by two fold serial dilution assay; type: functional; conditions: time 18-20 hrs
Klebsiella pneumoniae [12] = assay: Antibacterial activity against KPC-2 producing multidrug-resistant Klebsiella pneumoniae clinical isolate 15-5 assessed as inhibition of bacterial growth incubated for 18 to 20 hrs by two fold serial dilution assay; type: functional; conditions: time 18-20 hrs
[13] = molecular target: Voltage-gated inwardly rectifying potassium channel KCNH2 (Homo sapiens, UniProt Q12809); assay: Inhibition of hERG by whole cell Qpatch assay; type: toxicity
Escherichia coli [14] = assay: Antibacterial activity against ESBL-producing multidrug-resistant Escherichia coli clinical isolate 14-1 assessed as inhibition of bacterial growth incubated for 18 to 20 hrs by two fold serial dilution assay; type: functional; conditions: time 18-20 hrs
Pseudomonas aeruginosa [15] = assay: Antibacterial activity against IMP-4 producing multidrug-resistant Pseudomonas aeruginosa clinical isolate 17-13 assessed as inhibition of bacterial growth incubated for 18 to 20 hrs by two fold serial dilution assay; type: functional; conditions: time 18-20 hrs
Klebsiella pneumoniae [16] = assay: Antibacterial activity against KPC-2 producing multidrug-resistant Klebsiella pneumoniae clinical isolate 15-2 assessed as inhibition of bacterial growth incubated for 18 to 20 hrs by two fold serial dilution assay; type: functional; conditions: time 18-20 hrs
Escherichia coli [17] = assay: Antibacterial activity against Escherichia coli ATCC35218 assessed as inhibition of bacterial growth incubated for 18 to 20 hrs by two fold serial dilution assay; type: functional; conditions: time 18-20 hrs
Acinetobacter baumannii [18] = assay: Antibacterial activity against OXA-23 producing multidrug-resistant Acinetobacter baumannii clinical isolate 15-3 assessed as inhibition of bacterial growth incubated for 18 to 20 hrs by two fold serial dilution assay; type: functional; conditions: time 18-20 hrs
Acinetobacter baumannii [19] = assay: Antibacterial activity against OXA-23 producing multidrug-resistant Acinetobacter baumannii clinical isolate 15-5 assessed as inhibition of bacterial growth incubated for 18 to 20 hrs by two fold serial dilution assay; type: functional; conditions: time 18-20 hrs
Acinetobacter baumannii [20] = assay: Antibacterial activity against OXA-23 producing multidrug-resistant Acinetobacter baumannii clinical isolate 15-1 assessed as inhibition of bacterial growth incubated for 18 to 20 hrs by two fold serial dilution assay; type: functional; conditions: time 18-20 hrs
Escherichia coli [21] = assay: Antibacterial activity against Escherichia coli NCTC-13353 assessed as inhibition of bacterial growth incubated for 18 to 20 hrs in presence of iron-depleted CAMHB medium by two fold serial dilution assay; type: functional; conditions: time 18-20 hrs
Escherichia coli [22] = assay: Antibacterial activity against ESBL-producing multidrug-resistant Escherichia coli clinical isolate 14-2 assessed as inhibition of bacterial growth incubated for 18 to 20 hrs by two fold serial dilution assay; type: functional; conditions: time 18-20 hrs
Acinetobacter baumannii [23] = assay: Antibacterial activity against OXA-23 producing multidrug-resistant Acinetobacter baumannii clinical isolate 15-2 assessed as inhibition of bacterial growth incubated for 18 to 20 hrs by two fold serial dilution assay; type: functional; conditions: time 18-20 hrs
Escherichia coli [24] = assay: Antibacterial activity against ESBL-producing multidrug-resistant Escherichia coli clinical isolate 14-4 assessed as inhibition of bacterial growth incubated for 18 to 20 hrs by two fold serial dilution assay; type: functional; conditions: time 18-20 hrs
[25] = MRT in ICR mouse at 20 mg/kg,iv administration measured upto 6 hrs by LC-MS/MS analysis; type: ADME, organism-based; conditions: in vivo
[26] = AUC (0 to infinity) in ICR mouse at 20 mg/kg,iv administration measured upto 6 hrs by LC-MS/MS analysis; type: ADME, organism-based; conditions: in vivo
Escherichia coli [27] = assay: Antibacterial activity against Escherichia coli ATCC-35218 assessed as inhibition of bacterial growth incubated for 18 to 20 hrs in presence of CAMHB medium by two fold serial dilution assay; type: functional; conditions: time 18-20 hrs
Escherichia coli [28] = assay: Antibacterial activity against Escherichia coli ATCC-35218 assessed as inhibition of bacterial growth incubated for 18 to 20 hrs in presence of iron-depleted CAMHB medium by two fold serial dilution assay; type: functional; conditions: time 18-20 hrs
[29] = Half life in ICR mouse at 20 mg/kg,iv administration measured upto 6 hrs by LC-MS/MS analysis; type: ADME, organism-based; conditions: in vivo
Pseudomonas aeruginosa [30] = assay: Antibacterial activity against IMP-4 producing multidrug-resistant Pseudomonas aeruginosa clinical isolate 19-17 assessed as inhibition of bacterial growth incubated for 18 to 20 hrs by two fold serial dilution assay; type: functional; conditions: time 18-20 hrs
[31] = Volume of distribution at steady state in ICR mouse at 20 mg/kg,iv administration measured upto 6 hrs by LC-MS/MS analysis; type: ADME, organism-based; conditions: in vivo, read-out: Vdss
Acinetobacter baumannii [32] = assay: Antibacterial activity against OXA-23 producing multidrug-resistant Acinetobacter baumannii clinical isolate 15-4 assessed as inhibition of bacterial growth incubated for 18 to 20 hrs by two fold serial dilution assay; type: functional; conditions: time 18-20 hrs
[33] = Clearance in ICR mouse at 20 mg/kg,iv administration measured upto 6 hrs by LC-MS/MS analysis; type: ADME, organism-based; conditions: in vivo

Voltage-gated inwardly rectifying potassium channel KCNH2, sequence (Q12809 whole entry): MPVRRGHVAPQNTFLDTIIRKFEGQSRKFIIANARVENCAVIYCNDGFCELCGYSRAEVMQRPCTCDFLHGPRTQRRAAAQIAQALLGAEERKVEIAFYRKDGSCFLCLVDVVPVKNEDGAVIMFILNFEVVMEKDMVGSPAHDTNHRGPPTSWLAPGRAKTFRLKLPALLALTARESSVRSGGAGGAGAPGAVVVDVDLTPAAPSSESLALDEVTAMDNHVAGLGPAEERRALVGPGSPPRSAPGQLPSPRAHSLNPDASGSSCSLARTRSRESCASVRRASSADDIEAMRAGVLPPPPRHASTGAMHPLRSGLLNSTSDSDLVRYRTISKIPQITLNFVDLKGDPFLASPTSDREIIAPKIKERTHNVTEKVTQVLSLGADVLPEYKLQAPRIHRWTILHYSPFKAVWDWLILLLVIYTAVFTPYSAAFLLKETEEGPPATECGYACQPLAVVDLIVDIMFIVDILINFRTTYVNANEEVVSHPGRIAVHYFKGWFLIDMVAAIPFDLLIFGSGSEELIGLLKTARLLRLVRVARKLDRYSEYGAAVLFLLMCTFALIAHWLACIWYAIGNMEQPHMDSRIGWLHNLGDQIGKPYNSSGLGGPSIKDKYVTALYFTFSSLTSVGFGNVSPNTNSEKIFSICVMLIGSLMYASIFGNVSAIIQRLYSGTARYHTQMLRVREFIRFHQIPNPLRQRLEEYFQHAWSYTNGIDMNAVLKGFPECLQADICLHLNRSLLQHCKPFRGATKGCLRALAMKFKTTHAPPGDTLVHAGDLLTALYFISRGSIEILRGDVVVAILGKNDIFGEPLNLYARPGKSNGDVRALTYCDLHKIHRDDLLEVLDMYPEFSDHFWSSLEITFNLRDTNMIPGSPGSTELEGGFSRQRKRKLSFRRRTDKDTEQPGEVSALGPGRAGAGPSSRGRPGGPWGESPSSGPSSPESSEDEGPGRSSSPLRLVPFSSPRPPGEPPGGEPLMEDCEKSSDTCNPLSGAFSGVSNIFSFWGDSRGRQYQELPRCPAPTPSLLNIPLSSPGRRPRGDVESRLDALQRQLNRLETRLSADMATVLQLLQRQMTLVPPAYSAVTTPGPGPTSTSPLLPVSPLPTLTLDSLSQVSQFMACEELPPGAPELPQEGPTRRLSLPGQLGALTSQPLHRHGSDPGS
hERG (KCNH2), sequence (Q12809 whole entry): as above

Which results are given for `Cc1ccc(S(=O)(=O)O)cc1.Nc1nc(/C(=N/O[C@@H](C(=O)O)C2CCC(F)(F)CC2)C(=O)N[C@@H]2C(=O)N3C(C(=O)O)=C(CSCCNC(=O)c4ccc(O)c(O)c4Cl)CS[C@H]23)cs1`?
half-life [1]: 19.8 min; Vd [2]: 1.44 L/kg; MRT [3]: 9 min; AUC(0-inf) [4]: 2160 ng·h/mL; clearance [5]: 160 mL/min/kg

For `Nc1nc(/C(=N/OC(C(=O)O)C2CCC(F)(F)CC2)C(=O)N[C@@H]2C(=O)N3C(C(=O)O)=C(CSCCNC(=O)c4ccc(O)c(O)c4Cl)CS[C@H]23)cs1.O=C(O)C(F)(F)F` (some centres undefined), which MIC (Klebsiella pneumoniae [6]) is on record?
Its MIC is 2 µg/mL.

And the MIC (Klebsiella pneumoniae [7])?
The MIC was 1 µg/mL.

And the MIC (Pseudomonas aeruginosa [8])?
Its MIC is 4 µg/mL.

What about the MIC (Klebsiella pneumoniae [9]) of the same molecule?
The MIC was 2 µg/mL.

And the MIC (Escherichia coli [10])?
Its MIC is 0.5 µg/mL.

And the inhibition at 40 µM (hERG (KCNH2))?
Its inhibition at 40 µM is 16.8%.

What about the MIC (Klebsiella pneumoniae [11]) of the same molecule?
The MIC was 8 µg/mL.

And the MIC (Klebsiella pneumoniae [12])?
The MIC was 0.25 µg/mL.

And the pIC50 [13]?
Its pIC50 is under 4.40.

What about the MIC (Escherichia coli [14]) of the same molecule?
The MIC was 0.5 µg/mL.

And the MIC (Pseudomonas aeruginosa [15])?
The MIC was 0.25 µg/mL.

And the MIC (Klebsiella pneumoniae [16])?
Its MIC is 0.5 µg/mL.

And the MIC (Escherichia coli [17])?
The MIC was at most 0.03 µg/mL.

What about the MIC (Acinetobacter baumannii [18]) of the same molecule?
The MIC was 4 µg/mL.

What about the MIC (Acinetobacter baumannii [19]) of the same molecule?
The MIC was 2 µg/mL.

And the MIC (Acinetobacter baumannii [20])?
The MIC was 4 µg/mL.

And the MIC (Escherichia coli [21])?
Its MIC is 0.5 µg/mL.

What about the MIC (Escherichia coli [22]) of the same molecule?
The MIC was 0.5 µg/mL.

What about the MIC (Acinetobacter baumannii [23]) of the same molecule?
Its MIC is 2 µg/mL.

What about the MIC (Escherichia coli [24]) of the same molecule?
Its MIC is 0.125 µg/mL.

And the MRT [25]?
The MRT was 45.6 min.

And the AUC(0-inf) [26]?
Its AUC(0-inf) is 10400 ng·h/mL.

What about the MIC (Escherichia coli [27]) of the same molecule?
The MIC was 2 µg/mL.

And the MIC (Escherichia coli [28])?
Its MIC is 0.25 µg/mL.

And the half-life [29]?
Its half-life is 188 min.

What about the MIC (Pseudomonas aeruginosa [30]) of the same molecule?
Its MIC is 1 µg/mL.

What about the Vd [31] of the same molecule?
Its Vd is 1.59 L/kg.

What about the MIC (Acinetobacter baumannii [32]) of the same molecule?
Its MIC is 4 µg/mL.

What about the clearance [33] of the same molecule?
The clearance was 33.9 mL/min/kg.
